Measurements as given in US20050208496A1, “Methods of testing for bronchial asthma or chronic obstructive pulmonary disease” (Genox Research, Inc., priority 2002, published 2005).

System: respiratory epithelial cells

## IL-13: human IL-13 (Peprotech, Inc.) added to the medium at 50 ng/mL to stimulate respiratory epithelial cells
Lot 1, Day 7, IMM method
  HLA-F (37421_f_at) expression, fold change upon IL-13 stimulation: 2.1 fold
  HLA-F (49203_f_at) expression fold change: 2.1 fold
  HS3ST1 (41556_s_at) expression fold change upon IL-13 stimulation: 3.7 fold
  HUMRTVLH3 (34702_f_at) expression, fold change upon IL-13 stimulation: 7 fold
  IFI27 (425_at) expression, fold change upon IL-13 stimulation: 2.8 fold
  IFI35 (464_s_at) expression, fold change upon IL-13 stimulation: 4.6 fold
  IFI44 (37641_at) expression, fold change upon IL-13 stimulation: 2.3 fold
  IFIT1 (915_at) expression, fold change upon IL-13 stimulation: 2.1 fold
  IFIT4 (38584_at) expression, fold change upon IL-13 stimulation: 3.4 fold
  IFITM1 (675_at) expression, fold change upon IL-13 stimulation: 8.1 fold
  IL13RA2 (1016_s_at) expression fold change upon IL-13 stimulation: 5.3 fold
  IL19 (47855_at) expression fold change: 2.6 fold
  ISG15 (1107_s_at) expression, fold change upon IL-13 stimulation: 3.8 fold
  ISG15 (38432_at) expression, fold change upon IL-13 stimulation: 5 fold
  ISG20 (33304_at) expression, fold change upon IL-13 stimulation: 4.2 fold
  KIAA0469 (37230_at) expression, fold change upon IL-13 stimulation: 2.4 fold
  KIAA0537 (33787_at) expression, fold change upon IL-13 stimulation: 3.3 fold
  KIAA1199 (36070_at) expression, fold change upon IL-13 stimulation: 2.3 fold
  KIAA1268 (57050_at) expression fold change: 2.4 fold
  KIAAI268 (59516_at) expression fold change: 4 fold
  KRT16 (601_s_at) expression fold change: 3.5 fold
  LOC57118 (51085_at) expression fold change: 5 fold
  MAT2A (32571_at) expression fold change upon IL-13 stimulation: 2.4 fold
  MDA5 (51920_at) expression fold change: 2.8 fold
  MFHAS1 (50388_at) expression fold change: 2.6 fold
  MMP7 (668_s_at) expression, fold change upon IL-13 stimulation: 2.8 fold
  MX2 (879_at) expression fold change: 2.4 fold
  MXI (37014_at) expression fold change: 11.2 fold
  NK4 (39119_s_at) expression fold change upon IL-13 stimulation: 2.5 fold
  NOS2A (1948_f_at) expression fold change upon IL-13 stimulation: 2.8 fold
  NOS2A (48918_at) expression fold change: 2.5 fold
  NTRK1 (36805_s_at) expression, fold change upon IL-13 stimulation: 6.5 fold
  OAF (39695_at) expression, fold change upon IL-13 stimulation: 5.1 fold
  OAS1 (38388_at) expression fold change upon IL-13 stimulation: 3.3 fold
  OAS1 (38389_at) expression fold change upon IL-13 stimulation: 3.3 fold
  OSF-2 (1451_s_at) expression fold change upon IL-13 stimulation: 30.6 fold
  PHKB (46459_at) expression fold change: −2.7 fold
  PITPNB (35017_f_at) expression, fold change upon IL-13 stimulation: 2.1 fold
  PLS1 (39951_at) expression fold change: 7.9 fold
  PSMB9 (38287_at) expression fold change upon IL-13 stimulation: 3.1 fold
  RASGRP1 (33291_at) expression fold change: 3.3 fold
  RIG-1 (59215_at) expression fold change: 3.8 fold
  SECTM1 (41045_at) expression, fold change upon IL-13 stimulation: 14 fold
  SERPINB2 (37185_at) expression fold change: 3 fold
  SERPINB4 (1549_s_at) expression fold change: 23.9 fold
  SIAT1 (41352_at) expression fold change upon IL-13 stimulation: 21.6 fold
  SLC26A4, pendrin (36376_at) expression fold change: 28.5 fold
  SSI-1 (41592_at) expression, fold change upon IL-13 stimulation: 8.3 fold
  STAT1 (33339_g_at) expression fold change: 2.1 fold
  TSPAN-3 (38612_at) expression, fold change upon IL-13 stimulation: 3.2 fold
  UFD1L (811_at) expression, fold change upon IL-13 stimulation: 3.8 fold
  WARS (38121_at) expression fold change upon IL-13 stimulation: 6 fold
  cig5 (38549_at) expression, fold change upon IL-13 stimulation: 2.2 fold
  diubiquitin (39959_at) expression, fold change upon IL-13 stimulation: 9.7 fold
Lot 1 Day 3 AI
  AA059458 (65626_at) expression change: −2.3
  AA151265 (60939_i_at) expression change: −2.5
  AA160156 (47578_at) expression change: −2.4
  AA422178 (53747_at) expression change: −5.3
  AA456099 (59567_at) expression change: −2
  AA772055 46104_at expression change: −5.4
  AF052107 38262_at expression change: −2.5
  AI050855 (64285_at) expression change: −3.6
  AI264299 (84903_f_at) expression change: −3.1
  AI432375 (49819_at) expression change: −4.3
  AI468340 (72604_at) expression change: −2
  AI760772 (58528_s_at) expression change: −2.3
  AI829641 (84270_at) expression change: −5.1
  AI917602 (49985_at) expression change: −2.3
  AI923984 33546_at expression change: −3.2
  AL040936 (45684_at) expression change: −2.7
  AQP5 32909_at expression change: −6.3
  ARHGEF4 36524_at expression change: −3.5
  ARHV (82231_at) expression change: −2
  AW025596 52637_g_at expression change: −4.8
  BARX2 35425_at expression change: −3.1
  BPGM (51261_at) expression change: −4
  CRABP-II 1057_at expression change: −4.6
  DKFZp434K1210 44682_at expression change: −4.4
  DREV1 (63813_at) expression change: −2
  DSC3a, b 47119_at expression change: −2.4
  EIF4EBP1 (54152_at) expression change: −2.2
  FLJ10298 (62490_f_at) expression change: −3.7
  FLJ20048 (49196_at) expression change: −2.4
  FLJ20373 54030_at expression change: −2.1
  GABRP 40339_at expression change: −2.2
  GJA1 32531_at expression change: −4.4
  GSTA3 58023 at expression change: −4.6
  HEY1 44783_s_at expression change: −6.2
  HIN-1 (46200_at) expression change: −5.4
  HSPC195 44705_at expression change: −2.5
  IVL 36355_at expression change: −6.8
  K1IAA1102 (64345_s_at) expression change: −2.7
  KLF7 34216_at expression change: −2.5
  KLF7 (42769_at) expression change: −3.2
  KRT6B (62998_at) expression change: −3.4
  KRT15 37582_at expression change: −5.2
  LOC51297 (49616_at) expression change: −9.1
  LOC51297 (55440_at) expression change: −57.3
  LOC51297 (55442_g_at) expression change: −14
  LOC51316 (63342_at) expression change: −2
  LOC129642 (58288_at) expression change: −2.8
  LOC131177 (43849_s_at) expression change: −5.2
  LOC131177 (45394_s_at) expression change: −4.4
  MGC13102 (54791_at) expression change: −6.5
  MGC14128 55924_at expression change: −2.6
  MGC14128 (51669_r_at) expression change: −2.8
